# Assay results published in patent US10351546B2, “Pyridin-3-yl acetic acid derivatives as inhibitors of human immunodeficiency virus replication” (priority 2015, dated 2019).
# System: NL-RLuc virus
# Test: Inhibition of HIV replication (NL-RLuc luciferase reporter virus in MT-2 cells)
# Assay type: cell-based
# Conditions: Human immunodeficiency virus 1, MT2, 120 h, read-out: Activity
# Method in brief: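 The read-out is Renilla luciferase expressed by replication-competent NL-RLuc (nef partly replaced), measured 5 days after infection of MT-2 cells grown with compound dilutions in 10% FBS RPMI. Median effect equation gives EC50 from ≥2 runs; A ≤100 nM, B 100 nM–1 uM, C >1 uM.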
row,Compound,EC50
1,"Cc1nc(NS(C)(=O)=O)c(-c2ccc(OCCc3ccc(F)cc3)cc2)c(N2CCC(C)(C)CC2)c1[C@H](OC(C)(C)C)C(=O)O [Example 48, (S)-2-(tert-Butoxy)-2-(4-(4,4-dimethylpiperidin-1-yl)-5-(4-(4-fluorophenethoxy)phenyl)-2-methyl-6-(methylsulfonamido)pyridin-3-yl)acetic acid]",< 0.1 µM
2,"CNc1nc(C)c([C@H](OC(C)(C)C)C(=O)O)c(N2CCC(C)(C)CC2)c1-c1ccc(OCCc2ccc(F)cc2)cc1 [Example 49, (S)-2-(tert-Butoxy)-2-(4-(4,4-dimethylpiperidin-1-yl)-5-(4-(4-fluorophenethoxy)phenyl)-2-methyl-6-(methylamino)pyridin-3-yl)acetic acid]",< 0.1 µM
3,"Cc1nc(N2CCCCC2)c(-c2ccc(OCCc3ccc(F)cc3)cc2)c(N2CCC(C)(C)CC2)c1[C@H](OC(C)(C)C)C(=O)O [Example 53, (S)-2-(tert-Butoxy)-2-(4-(4,4-dimethylpiperidin-1-yl)-5-(4-(4-fluorophenethoxy)phenyl)-2-methyl-6-(piperidin-1-yl)pyridin-3-yl)acetic acid]",< 0.1 µM
4,"Cc1nc(/C=C/COC(C)C)c(-c2ccc(OCCc3ccc(F)cc3)cc2)c(N2CCC(C)(C)CC2)c1[C@H](OC(C)(C)C)C(=O)O [Example 54, (S,E)-2-(tert-Butoxy)-2-(4-(4,4-dimethylpiperidin-1-yl)-5-(4-(4-fluorophenethoxy)phenyl)-6-(3-isopropoxyprop-1-en-1-yl)-2-methylpyridin-3-yl)acetic acid]",< 0.1 µM
5,"Cc1nc(/C=C\COC(C)C)c(-c2ccc(OCCc3ccc(F)cc3)cc2)c(N2CCC(C)(C)CC2)c1[C@H](OC(C)(C)C)C(=O)O [Example 55, (S,Z)-2-(tert-Butoxy)-2-(4-(4,4-dimethylpiperidin-1-yl)-5-(4-(4-fluorophenethoxy)phenyl)-6-(3-isopropoxyprop-1-en-1-yl)-2-methylpyridin-3-yl)acetic acid]",< 0.1 µM
6,"Cc1nc(CCCOC(C)C)c(-c2ccc(OCCc3ccc(F)cc3)cc2)c(N2CCC(C)(C)CC2)c1[C@H](OC(C)(C)C)C(=O)O [Example 56, (S)-2-(tert-Butoxy)-2-(4-(4,4-dimethylpiperidin-1-yl)-5-(4-(4-fluorophenethoxy)phenyl)-6-(3-isopropoxypropyl)-2-methylpyridin-3-yl)acetic acid]",< 0.1 µM
7,"CO/C=C/c1nc(C)c([C@H](OC(C)(C)C)C(=O)O)c(N2CCC(C)(C)CC2)c1-c1ccc(OCCc2ccc(F)cc2)cc1 [Example 57, (S,E)-2-(tert-Butoxy)-2-(4-(4,4-dimethylpiperidin-1-yl)-5-(4-(4-fluorophenethoxy)phenyl)-6-(2-methoxyvinyl)-2-methylpyridin-3-yl)acetic acid]",< 0.1 µM
8,"COCCc1nc(C)c([C@H](OC(C)(C)C)C(=O)O)c(N2CCC(C)(C)CC2)c1-c1ccc(OCCc2ccc(F)cc2)cc1 [Example 58, (S)-2-(tert-butoxy)-2-(4-(4,4-dimethylpiperidin-1-yl)-5-(4-(4-fluorophenethoxy)phenyl)-6-(2-methoxyethyl)-2-methylpyridin-3-yl)acetic acid]",< 0.1 µM
9,"Cc1nc(CCCN(C)C)c(-c2ccc(OCCc3ccc(F)cc3)cc2)c(N2CCC(C)(C)CC2)c1[C@H](OC(C)(C)C)C(=O)O [Example 59, (S)-2-(tert-Butoxy)-2-(6-(3-(dimethylamino)propyl)-4-(4,4-dimethylpiperidin-1-yl)-5-(4-(4-fluorophenethoxy)phenyl)-2-methylpyridin-3-yl)acetic acid]",< 0.1 µM
10,"COc1ccc(Cc2nc(C)c([C@H](OC(C)(C)C)C(=O)O)c(N3CCC(C)(C)CC3)c2-c2ccc(OCCc3ccc(F)cc3)cc2)cc1 [Example 60, (S)-2-(tert-Butoxy)-2-(4-(4,4-dimethylpiperidin-1-yl)-5-(4-(4-fluorophenethoxy)phenyl)-6-(4-methoxybenzyl)-2-methylpyridin-3-yl)acetic acid]",< 0.1 µM
11,"C=Cc1nc(C)c([C@H](OC(C)(C)C)C(=O)O)c(N2CCC(C)(C)CC2)c1-c1ccc(OCCc2ccc(F)cc2)cc1 [Example 61, (S)-2-(tert-Butoxy)-2-(4-(4,4-dimethylpiperidin-1-yl)-5-(4-(4-fluorophenethoxy)phenyl)-2-methyl-6-vinylpyridin-3-yl)acetic acid]",< 0.1 µM
12,"Cc1ncc(Br)c(N2CCC(C)(C)CC2)c1[C@H](OC(C)(C)C)C(=O)O [Example 62, (S)-2-(5-Bromo-4-(4,4-dimethylpiperidin-1-yl)-2-methylpyridin-3-yl)-2-(tert-butoxy)acetic acid]",< 0.1 µM
13,"Cc1ncc(-c2ccc(OCCc3ccc(F)cc3)cc2)c(N2CCC(C)(C)CC2)c1[C@H](OC(C)(C)C)C(=O)O [Example 63, (S)-2-(tert-Butoxy)-2-(4-(4,4-dimethylpiperidin-1-yl)-5-(4-(4-fluorophenethoxy)phenyl)-2-methylpyridin-3-yl)acetic acid]",< 0.1 µM
14,"CNCc1nc(C)c([C@H](OC(C)(C)C)C(=O)O)c(N2CCC(C)(C)CC2)c1-c1ccc(OCCc2ccc(F)cc2)cc1 [Example 64, (S)-2-(tert-Butoxy)-2-(4-(4,4-dimethylpiperidin-1-yl)-5-(4-(4-fluorophenethoxy)phenyl)-2-methyl-6-((methylamino)methyl)pyridin-3-yl)acetic acid]",< 0.1 µM
15,"Cc1nc(CN(C)C)c(-c2ccc(OCCc3ccc(F)cc3)cc2)c(N2CCC(C)(C)CC2)c1[C@H](OC(C)(C)C)C(=O)O [Example 65, (S)-2-(tert-Butoxy)-2-(6-((dimethylamino)methyl)-4-(4,4-dimethylpiperidin-1-yl)-5-(4-(4-fluorophenethoxy)phenyl)-2-methylpyridin-3-yl)acetic acid]",< 0.1 µM
16,"Cc1nc(CNC(C)C)c(-c2ccc(OCCc3ccc(F)cc3)cc2)c(N2CCC(C)(C)CC2)c1[C@H](OC(C)(C)C)C(=O)O [Example 66, (S)-2-(tert-Butoxy)-2-(4-(4,4-dimethylpiperidin-1-yl)-5-(4-(4-fluorophenethoxy)phenyl)-6-((isopropylamino)methyl)-2-methylpyridin-3-yl)acetic acid]",< 0.1 µM
17,"Cc1nc(CNCC2CCOCC2)c(-c2ccc(OCCc3ccc(F)cc3)cc2)c(N2CCC(C)(C)CC2)c1[C@H](OC(C)(C)C)C(=O)O [Example 67, (S)-2-(tert-Butoxy)-2-(4-(4,4-dimethylpiperidin-1-yl)-5-(4-(4-fluorophenethoxy)phenyl)-2-methyl-6-((((tetrahydro-2H-pyran-4-yl)methyl)amino)methyl)pyridin-3-yl)acetic acid]",< 0.1 µM
18,"COCCNCc1nc(C)c([C@H](OC(C)(C)C)C(=O)O)c(N2CCC(C)(C)CC2)c1-c1ccc(OCCc2ccc(F)cc2)cc1 [Example 68, (S)-2-(tert-Butoxy)-2-(4-(4,4-dimethylpiperidin-1-yl)-5-(4-(4-fluorophenethoxy)phenyl)-6-(((2-methoxyethyl)amino)methyl)-2-methylpyridin-3-yl)acetic acid]",< 0.1 µM
19,"Cc1nc(CNCCO)c(-c2ccc(OCCc3ccc(F)cc3)cc2)c(N2CCC(C)(C)CC2)c1[C@H](OC(C)(C)C)C(=O)O [Example 69, (S)-2-(tert-Butoxy)-2-(4-(4,4-dimethylpiperidin-1-yl)-5-(4-(4-fluorophenethoxy)phenyl)-6-(((2-hydroxyethyl)amino)methyl)-2-methylpyridin-3-yl)acetic acid]",< 0.1 µM
20,"Cc1nc(CN2CCOCC2)c(-c2ccc(OCCc3ccc(F)cc3)cc2)c(N2CCC(C)(C)CC2)c1[C@H](OC(C)(C)C)C(=O)O [Example 70, (S)-2-(tert-Butoxy)-2-(4-(4,4-dimethylpiperidin-1-yl)-5-(4-(4-fluorophenethoxy)phenyl)-2-methyl-6-(morpholinomethyl)pyridin-3-yl)acetic acid]",< 0.1 µM
21,"CCNCc1nc(C)c([C@H](OC(C)(C)C)C(=O)O)c(N2CCC(C)(C)CC2)c1-c1ccc(OCCc2ccc(F)cc2)cc1 [Example 71, (S)-2-(tert-Butoxy)-2-(4-(4,4-dimethylpiperidin-1-yl)-6-((ethylamino)methyl)-5-(4-(4-fluorophenethoxy)phenyl)-2-methylpyridin-3-yl)acetic acid]",< 0.1 µM
22,"Cc1nc(CNCc2ccccc2)c(-c2ccc(OCCc3ccc(F)cc3)cc2)c(N2CCC(C)(C)CC2)c1[C@H](OC(C)(C)C)C(=O)O [Example 72, (S)-2-(6-((Benzylamino)methyl)-4-(4,4-dimethylpiperidin-1-yl)-5-(4-(4-fluorophenethoxy)phenyl)-2-methylpyridin-3-yl)-2-(tert-butoxy)acetic acid]",< 0.1 µM
23,"Cc1nc(CNc2ccccc2)c(-c2ccc(OCCc3ccc(F)cc3)cc2)c(N2CCC(C)(C)CC2)c1[C@H](OC(C)(C)C)C(=O)O [Example 73, (S)-2-(tert-Butoxy)-2-(4-(4,4-dimethylpiperidin-1-yl)-5-(4-(4-fluorophenethoxy)phenyl)-2-methyl-6-((phenylamino)methyl)pyridin-3-yl)acetic acid]",< 0.1 µM
24,"Cc1nc(CNCc2ccncc2)c(-c2ccc(OCCc3ccc(F)cc3)cc2)c(N2CCC(C)(C)CC2)c1[C@H](OC(C)(C)C)C(=O)O [Example 74, (S)-2-(tert-Butoxy)-2-(4-(4,4-dimethylpiperidin-1-yl)-5-(4-(4-fluorophenethoxy)phenyl)-2-methyl-6-(((pyridin-4-ylmethyl)amino)methyl)pyridin-3-yl)acetic acid]",< 0.1 µM
25,"Cc1nc(CN2CCCC2)c(-c2ccc(OCCc3ccc(F)cc3)cc2)c(N2CCC(C)(C)CC2)c1[C@H](OC(C)(C)C)C(=O)O [Example 75, (S)-2-(tert-Butoxy)-2-(4-(4,4-dimethylpiperidin-1-yl)-5-(4-(4-fluorophenethoxy)phenyl)-2-methyl-6-(pyrrolidin-1-ylmethyl)pyridin-3-yl)acetic acid]",< 0.1 µM
26,"Cc1nc(CNCC2COC2)c(-c2ccc(OCCc3ccc(F)cc3)cc2)c(N2CCC(C)(C)CC2)c1[C@H](OC(C)(C)C)C(=O)O [Example 76, (S)-2-(tert-Butoxy)-2-(4-(4,4-dimethylpiperidin-1-yl)-5-(4-(4-fluorophenethoxy)phenyl)-2-methyl-6-(((oxetan-3-ylmethyl)amino)methyl)pyridin-3-yl)acetic acid]",< 0.1 µM

# Same assay, conditions: Human immunodeficiency virus 1, MT2, 120 h, read-out: EC50 μM
row,Compound,EC50
1,"CNc1nc(C)c([C@H](OC(C)(C)C)C(=O)O)c(N2CCC(C)(C)CC2)c1-c1ccc(OCCc2ccc(F)cc2)cc1 [Example 49, (S)-2-(tert-Butoxy)-2-(4-(4,4-dimethylpiperidin-1-yl)-5-(4-(4-fluorophenethoxy)phenyl)-2-methyl-6-(methylamino)pyridin-3-yl)acetic acid]",0.001 µM
2,"CO/C=C/c1nc(C)c([C@H](OC(C)(C)C)C(=O)O)c(N2CCC(C)(C)CC2)c1-c1ccc(OCCc2ccc(F)cc2)cc1 [Example 57, (S,E)-2-(tert-Butoxy)-2-(4-(4,4-dimethylpiperidin-1-yl)-5-(4-(4-fluorophenethoxy)phenyl)-6-(2-methoxyvinyl)-2-methylpyridin-3-yl)acetic acid]",0.012 µM
3,"CCNCc1nc(C)c([C@H](OC(C)(C)C)C(=O)O)c(N2CCC(C)(C)CC2)c1-c1ccc(OCCc2ccc(F)cc2)cc1 [Example 71, (S)-2-(tert-Butoxy)-2-(4-(4,4-dimethylpiperidin-1-yl)-6-((ethylamino)methyl)-5-(4-(4-fluorophenethoxy)phenyl)-2-methylpyridin-3-yl)acetic acid]",0.002 µM
